Where two headings read alike, the source gives them in different places.
What was measured:
[1] = test system: perforin-dependent cytotoxicity of KHYG-1 NK cells on K562 target cells; assay: KHYG-1 cytotoxicity assay (51Cr-labeled K562 target cells); type: cell-based; conditions: Homo sapiens
Protocol: (Table 1). […] An IC90 was used rather than an IC50 as we anticipated that elevated suppression of perforin activity is likely required to preserve the transplanted bone marrow stem cells in vivo.
The inhibition of the cytotoxic activity of KHYG-1 NK cells on K562 target cells was determined as described previously.[14] Briefly, compounds were added to KHYG-1 cells at 6–7 concentrations ranging from 20 μM to 312.5 nM in 2-fold dilutions in RPMI medium (Thermo Fisher Scientific, Waltham, MA) supplemented with 0.1% bovine serum albumin (BSA; Sigma-Aldrich, St. Louis, MO) for 20 min. ^51Cr-labeled K562 leukemia target cells were added to KHYG-1 cells at an effector/target ratio of 2:1 and incubated at 37 °C for 4 h. ^51Cr release was assayed using a Harvesting Press (Skatron Instruments, Lier, Norway), and radioactivity was estimated on a Wallac Wizard 1470 Automatic γ counter (Turku, Finland). The IC90 values were calculated by fitting a four-parameter logistic sigmoidal dose–response curve to the data using Prism version 8 (GraphPad, San Diego, CA). Each IC90 value represents the mean of at least three independent experiments, where six to seven concentrations were tested in triplicate for each compound.

[2] = Mouse plasma pharmacokinetics; type: in vivo; conditions: for AUC(0-t): read-out: AUC0–24
Protocol: Male C57BL/6 mice (18–25 g) were supplied and housed under controlled temperature and humidity at the Vernon Jansen Unit of the University of Auckland. The mice had access to a pelleted diet and water ad libitum. All animal experimentation followed protocols approved by the University of Auckland Animal Ethics Committee (approval #001781). Dosing solutions were prepared in 20% hydroxypropyl-β-cyclodextrin (Sigma-Aldrich). The mice received one to three doses by intraperitoneal route and were euthanised at predetermined time points (n = 3 mice per time point at 0.083, 0.25, 0.5, 1, 2, 4, 6, and 24 h for 10 mg/kg 1 and 7; 0.5, 1, 2, 6, and 24 h for 80 and 160 mg/kg 1; and 1, 6, and 24 h for 120 mg/kg 1). Blood samples (∼300 μL) were obtained through cardiac bleed and collected in ice-cold K2-EDTA tubes (BD, Franklin Lakes, NJ). Plasma was separated by centrifugation at 6500 rpm for 5 min and stored at −80 °C. On the day of analysis, plasma samples were thawed on ice and the analytes were extracted by mixing 10 μL of aliquots with four volumes of ice-cold acetonitrile/methanol (1:1 v/v) containing internal standard. The samples were kept on ice for 10 min to ensure complete protein precipitation, vortexed for 2 min, and centrifuged at 13 000 rpm for 5 min at room temperature. The clear supernatant was then diluted (1:1 v/v) with 40 μL of 0.01% formic acid in Milli-Q water prior to analysis by LC-MS/MS.
Compound concentration in biological matrices was measured by LC-MS/MS using a 6410b triple-quadrupole mass spectrometer (Agilent, Santa Clara) equipped with a multimode ionization source. The optimized mass detector conditions, namely, ionization polarity, precursor product ions, fragmentor voltage, and collision energy, were manually determined by infusing a 5 μM solution of the pure compound into the ion source. Chromatographic separation was achieved using a Zorbax SB-C18, 50 × 2.1 mm^2, 5 μm column (Agilent), and an Agilent 1100 series HPLC system. The mobile phase used was (A) 0.01% formic acid in Milli-Q water and (B) 80% acetonitrile containing 0.01% formic acid in ultrapure water at a flow rate of 0.6 mL/min. A gradient elution was used over 5 min, and the flow rate was maintained at 0.6 mL/min throughout the gradient. The column oven temperature and the autosampler temperature were set to 35 and 4 °C, respectively. […] The instrument multimode source parameters were set as follows: gas temperature, 325 °C; vaporizer, 250 °C; gas flow, 5 L/min; and nebulizer, 45 psi. The ion spray voltage was set at 3000 V. Detection of the compounds was carried out in multiple reaction monitoring mode by monitoring the m/z transitions of precursor to selective product ion. For each compound, fragmentor voltage and collision energy were optimized to achieve maximum abundance. Quadrupoles Q1 and Q3 were set to unit resolution.
Test samples were diluted up to 100-fold in blank plasma as necessary and quantitated against a calibration curve of known analyte concentrations ranging from 3 nM to 30 μM in an appropriate matrix and quality controls at 0.03, 0.3, 3, and 30 μM. Pharmacokinetic parameters were evaluated using noncompartmental analysis and pharmacokinetic simulations using one-compartment analysis on Phoenix WinNonlin version 6.2 (Certara, Princeton, NJ). Multiple-dose simulations were generated from parameters derived from single-dose simulations.

[3] = test system: recombinant perforin; set-up: method as in PMID 28582670, PMID 28110869; conditions: lytic activity of recombinant perforin against Jurkat T leukemia cells; cited from earlier work
[4] = concentration inhibiting 90% of perforin-dependent cytotoxicity, K562 targets, effector/target 2:1, 4 h, RPMI 0.1% BSA, read-out: KHYG-1 IC90
[5] = male, mouse, ip, 80 mg/kg single i.p. dose, C57BL/6 mice, plasma
[6] = male, mouse, ip, 120 mg/kg single i.p. dose, C57BL/6 mice, plasma
[7] = male, mouse, ip, 160 mg/kg single i.p. dose, C57BL/6 mice, plasma
[8] = male, C57BL/6, ip, mouse plasma, 10 mg/kg intraperitoneal

| AUC [2, 8] | Cmax [2, 8] | half-life ([2]; male, C57BL/6, ip, mouse plasma, 10 mg/kg intraperitoneal, read-out: T1/2 (converted)) | Compound | IC90 ([1]; KHYG-1, estimated from IC90 5.37 μM and media free fraction 0.144, read-out: unbound in vitro IC90 in KHYG-1 cells) | IC90 [1, 4] | Cmax ([2]; 10 mg/kg single i.p. dose, C57BL/6 mice, plasma) | half-life ([2]; male, C57BL/6, mouse, plasma, intraperitoneal, across the dose levels 160, 120, 80 and 10 mg/kg, read-out: elimination half-life) | AUC(0-t) ([2]; male, mouse, ip, 10 mg/kg single i.p. dose, C57BL/6 mice, plasma) | half-life ([2]; male, mouse, ip, 10 mg/kg single i.p. dose, C57BL/6 mice, plasma, read-out: T1/2 (converted)) | Cmax [2, 5] | AUC(0-t) [2, 5] | half-life ([2]; male, mouse, ip, 80 mg/kg single i.p. dose, C57BL/6 mice, plasma, read-out: T1/2 (converted)) | Cmax [2, 6] | AUC(0-t) [2, 6] | half-life ([2]; male, mouse, ip, 120 mg/kg single i.p. dose, C57BL/6 mice, plasma, read-out: T1/2 (converted)) | Cmax [2, 7] | AUC(0-t) [2, 7] | half-life ([2]; male, mouse, ip, 160 mg/kg single i.p. dose, C57BL/6 mice, plasma, read-out: T1/2 (converted)) | IC50 [3] |
| --- | --- | --- | --- | --- | --- | --- | --- | --- | --- | --- | --- | --- | --- | --- | --- | --- | --- | --- | --- |
|  |  |  | CN1Cc2cc(-c3ccc(-c4cncc(NS(=O)(=O)c5ccccc5[N+](=O)[O-])c4)s3)ccc2C1=O [Compound 1, N-{5-[5-(2-methyl-1-oxo-2,3-dihydro-1H-isoindol-5-yl)-2-thienyl]-3-pyridinyl}-2-nitrobenzenesulfonamide] | 0.77 µM | 5.37 ± 1.1 µM | 105 µM | 2.4 to 3.4 h | 413 µM·h | 2.38 h | 782 µM | 5440 µM·h | 2.85 h | 1030 µM | 7320 µM·h | 2.85 h | 1190 µM | 8940 µM·h | 3.36 h | 6.65 µM |
| 1220 µM·h | 235 µM | 4.1 h | O=C1NCc2ccc(-c3ccc(-c4cncc(NS(=O)(=O)c5ccc(F)cc5F)c4)s3)cc21 [Compound 7, 2,4-difluoro-N-{5-[5-(3-oxo-2,3-dihydro-1H-isoindol-5-yl)-2-thienyl]-3-pyridinyl}benzenesulfonamide] |  | 28.9 ± 6.7 µM |  |  |  |  |  |  |  |  |  |  |  |  |  | 4.15 µM |

— paper PMC9194936, “Preclinical Activity and Pharmacokinetic/Pharmacodynamic Relationship for a Series of Novel Benzenesulfonamide Perforin Inhibitors” (ACS Pharmacology & Translational Science, 2022)
